# Test results from US5508180A, “Biocatalytic oxidation using soybean peroxidase” (Enzymol International, Inc., priority 1994, dated 1996).
# Molecular target: T1, soybean peroxidase (Glycine max, UniProt O22443)
# T1 construct: secreted heme glycoprotein, reported 37 kDa
# Test: N-demethylation of N,N-dimethylanthranilic acid methyl ester by soybean peroxidase
# Type: biochemical
# Procedure: N,N-Dimethylanthranilic acid methyl ester (DMA) and the product of N-demethylation, N-methylanthranilic acid methyl ester (NMA), were purchased from TCI America (Portland, Oreg.). […] Using 1 g. (5mM) DMA in 25 mM acetate, pH 4.5, 120 ppu SBP and 1 mM H202, the increases observed were: 295 nm - 0.727 AU per min; 379 nm -0.403 AU per min. To optimize N-demethylation, the effect of pH was studied using 25 mM buffers at the appropriate pH.
# T1 sequence (O22443 27-332): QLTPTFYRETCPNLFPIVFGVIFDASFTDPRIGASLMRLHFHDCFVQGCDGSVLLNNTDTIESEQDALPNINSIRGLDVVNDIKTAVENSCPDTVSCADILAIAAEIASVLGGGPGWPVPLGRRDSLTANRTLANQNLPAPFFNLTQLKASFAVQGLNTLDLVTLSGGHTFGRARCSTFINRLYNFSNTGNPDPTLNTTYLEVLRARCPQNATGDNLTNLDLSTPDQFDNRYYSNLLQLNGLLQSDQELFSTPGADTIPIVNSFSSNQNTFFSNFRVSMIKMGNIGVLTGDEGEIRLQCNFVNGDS
smiles,measurement,setting,value
"COC(=O)c1ccccc1N(C)C [DMA, N,N-Dimethylanthranilic acid methyl ester]",increase in absorbance at 295 nm,"5mM DMA, 25 mM acetate pH 4.5, 120 ppu SBP, 1 mM H2O2",0.727 AU per min
same,dA per min at 379 nm,"pH 1, 25 mM buffer",0.005
same,dA per min at 379 nm,"pH 2, 25 mM buffer",0.2603
same,dA per min at 379 nm,"pH 3, 25 mM buffer",0.099
same,dA per min at 379 nm,"pH 4, 25 mM buffer",0.181
same,dA per min at 379 nm,"pH 5, 25 mM buffer",0.2401
same,dA per min at 379 nm,"pH 6, 25 mM buffer",0.1095
same,dA per min at 379 nm,"pH 7, 25 mM buffer",0.0065
